Source: patent US20230257385A1, “SALT AND SOLID FORMS OF TABERNANTHALOG” (priority 2021, published 2023)
Converted amounts (≈) assume the structure as drawn.

Columns and labels:
[1] = Heat-up/cool-down crystallisation screen of sorbate salt (Example 10, Experiments 5, 8); assay type: physicochemical; conditions: for Observations (t = 1 @ T = 20° C.): Tabernanthalog sorbate salt (Form A) crystallised from binary solvents, solvent A 3.0 vol plus solvent B, one pair per sample; for XRPD (centrifuged, wet): wet pellet
Description: The relevant solvent (0.225 ml, 3.0 vol) was added to the appropriate vial and the suspensions were stirred and warmed to temperature. If dissolution was not observed, further solvent was added until the solute dissolved, or aliquots of a secondary co-solvent were added to complete dissolution. Once dissolved, the solutions were left to cool down and stand undisturbed under sub-ambient conditions for several days. After crystallisation was judged complete, the products were isolated by centrifugation and the pellets were dried at 40° C. under reduced pressure. Products from the crystallisation (wet and dry) were initially analysed by XRPD (9-minute method), further analyses of certain products were performed by ^1H NMR, DSC and TGA, if the diffraction pattern indicated differences.

[2] = Solubility determinations in SIF buffers FaSSIF, FeSSIF, FaSSGF (Example 8, Experiment 5)
Description: The temperature was maintained at 37° C. for 24 h. […] The suspensions were sampled at the relevant time points and centrifuged. The centrifuged pellets, obtained at the time points were analysed by XRPD as a wet pellet and dried, for evidence of form change.
The temperature was maintained at 37° C. for 24 h.
The suspension was sampled at the relevant time points and centrifuged. […] The centrifuged pellets, obtained at the time points were analyzed by XRPD as a wet pellet and dried, for evidence of form change.

[3] = Suspension equilibration of the monofumarate salt at 20° C. and 40° C. (Experiment References 6, 7, 8); assay type: physicochemical; conditions: suspension equilibration at 40° C.
Description: Separate portions of the tabernanthalog monofumarate salt (Sample Reference 1, Pattern #1, ca 50 mg, 1.0 wt.) were charged to separate vessels. The appropriate solvents (e.g. 250 μl, 5.0 vol), were charged to the vessels and the mixtures were stirred for several days at their relevant temperatures e.g. 20 and 40° C. After this time the products were cooled, isolated by centrifugation, analyzed as wet pellet (suffix-1) by XRPD and dried under reduced pressure at 40° C. (suffix-2) and re-analyzed by XRPD and companion analyses for evidence of alternative crystalline forms.
The tabernanthalog monofumarate salt (Sample Reference 1, Pattern #1) was subjected to this technique at ambient temperature (20° C., Table 35) and at elevated temperature (40° C., Table 36), in a diverse range of solvents. The primary aim is to identify a stable, anhydrous monotropic form that is suitable for future development.
The tabernanthalog monofumarate salt (Sample Reference 1, Pattern #1, 1.0 g, 1 wt) was suspended in water (5 ml, 5 vol) at 20° C. for 10 days (the suspension was sub-sampled to monitor the conversion to Pattern #6a by XRPD). The suspension was filtered through a sintered funnel and the filter cake was dried under nitrogen flow for ca. 24 h. Sample 8-A4 (Experiment Reference 8-Sample Reference A4) was collected as a brown solid (560.6 mg, 56% yield uncorr.). Yield was not corrected for impurities, solvents, etc.

[4] = Experiment 5, heat-up/cool-down crystallisation from binary solvents
[5] = 37 °C, pH 1.6, fassgf or other biorelevant, thermodynamic from solid
[6] = 37 °C, pH 5, fessif, thermodynamic from solid
[7] = 37 °C, pH 6.5, fassif, thermodynamic from solid

C/C=C/C=C/C(=O)O.COc1ccc2c3c([nH]c2c1)CCN(C)CC3 [Experiment 5-Sample E]
Observations (t = 1 @ T = 20° C.) ([1]; Experiment 5): Partial | XRPD (oven dried @ 40° C., 20 h) [1, 4]: Form A | XRPD (centrifuged, wet) [1, 4]: Form A

CC=CC=CC(=O)O.COc1ccc2c3c([nH]c2c1)CCN(C)CC3 [Experiment 5-Sample A]
Observations (t = 1 @ T = 20° C.) ([1]; Experiment 5): Partial | XRPD (oven dried @ 40° C., 20 h) [1, 4]: Form A | XRPD (centrifuged, wet) [1, 4]: Form A

COc1ccc2c3c([nH]c2c1)CCN(C)CC3 [Tabernanthalog• Sorbate]
solubility at 1 h [2, 5]: 21.9 mg/mL (≈ 95 mM) | solubility at 3 h [2, 5]: 29.8 mg/mL (≈ 130 mM) | solubility at 6 h [2, 5]: 30.3 mg/mL (≈ 131 mM) | solubility at 24 h [2, 5]: 29.9 mg/mL (≈ 130 mM) | solubility at 1 h [2, 6]: 27.2 mg/mL (≈ 118 mM) | solubility at 3 h [2, 6]: > 30 mg/mL | solubility at 6 h [2, 6]: > 30 mg/mL | solubility at 1 h [2, 7]: > 30 mg/mL | solubility at 3 h [2, 7]: > 30 mg/mL | solubility at 6 h [2, 7]: > 30 mg/mL | XRPD (dried) ([2]; FaSSGF (pH 1.6), t = 1 h @37° C., suspended solid, dried pellet): Sorbic acid | XRPD (wet) ([2]; FaSSGF (pH 1.6), t = 1 h @37° C., suspended solid, wet pellet): Sorbic acid

CC=CC=CC(=O)O.COc1ccc2c3c([nH]c2c1)CCN(C)CC3 [Experiment 5-Sample K]
Observations (t = 1 @ T = 20° C.) ([1]; Experiment 5): Partial | XRPD (oven dried @ 40° C., 20 h) [1, 4]: Form A | XRPD (centrifuged, wet) [1, 4]: Form A

C/C=C/C=C/C(=O)O.COc1ccc2c3c([nH]c2c1)CCN(C)CC3 [Experiment 5-Sample J]
Observations (t = 1 @ T = 20° C.) ([1]; Experiment 5): Partial | XRPD (oven dried @ 40° C., 20 h) [1, 4]: Form A | XRPD (centrifuged, wet) [1, 4]: Form A

C/C=C/C=C/C(=O)O.COc1ccc2c3c([nH]c2c1)CCN(C)CC3 [Experiment 5-Sample N]
Observations (t = 1 @ T = 20° C.) ([1]; Experiment 5): Partial | XRPD (oven dried @ 40° C., 20 h) [1, 4]: Form A | XRPD (centrifuged, wet) [1, 4]: Form A

C/C=C/C=C/C(=O)O.COc1ccc2c3c([nH]c2c1)CCN(C)CC3 [Experiment 5-Sample O]
Observations (t = 1 @ T = 20° C.) ([1]; Experiment 5): Liquid | XRPD (oven dried @ 40° C., 20 h) [1, 4]: Form A | XRPD (centrifuged, wet) [1, 4]: Form A

C/C=C/C=C/C(=O)O.COc1ccc2c3c([nH]c2c1)CCN(C)CC3 [Experiment 5-Sample M]
Observations (t = 1 @ T = 20° C.) ([1]; Experiment 5): Liquid | XRPD (oven dried @ 40° C., 20 h) [1, 4]: Form A | XRPD (centrifuged, wet) [1, 4]: Form A

CC=CC=CC(=O)O.COc1ccc2c3c([nH]c2c1)CCN(C)CC3 [Experiment 8-Sample A]
XRPD (centrifuged, wet) ([1]; Experiment 8, repeat of HUCD crystallisations aiming at Pattern #1 (water) and Pattern #6 (heptane/ethyl formate)): Pattern #1

C/C=C/C=C/C(=O)O.COc1ccc2c3c([nH]c2c1)CCN(C)CC3 [Sample 5-L7]
Tabernanthalog RRT = 1.00 (trended HPLC data, chemical purity) ([2]; tabernanthalog sorbate salt, t = 6 h in FaSSGF, 37° C.): 99.30

COc1ccc2c3c([nH]c2c1)CCN(C)CC3.O=C(O)/C=C/C(=O)O [Tabernanthalog•fumarate (CAT8931)]
Observations (t = 0 @ 40° C.) ([3]; 7-A, Acetone): Suspension | Observations (t = 1 d @ 40° C.) ([3]; 7-A, Acetone): Suspension | Observations t = 7 d @ 40° C. ([3]; 7-A, Acetone): Suspension | Observations (t = 0 @ 40° C.) ([3]; 7-B, Acetonitrile): Suspension | Observations (t = 1 d @ 40° C.) ([3]; 7-B, Acetonitrile): Suspension | Observations t = 7 d @ 40° C. ([3]; 7-B, Acetonitrile): Suspension | Observations (t = 0 @ 40° C.) ([3]; 7-C, tert-Butylmethyl ether): Suspension | Observations t = 7 d @ 40° C. ([3]; 7-C, tert-Butylmethyl ether): Suspension | Observations (t = 0 @ 40° C.) ([3]; 7-D, Chlorobenzene): Suspension | Observations (t = 1 d @ 40° C.) ([3]; 7-D, Chlorobenzene): Suspension | Observations t = 7 d @ 40° C. ([3]; 7-D, Chlorobenzene): Suspension | Observations (t = 0 @ 40° C.) ([3]; 7-E, Dichloromethane): Suspension | Observations (t = 1 d @ 40° C.) ([3]; 7-E, Dichloromethane): Suspension | Observations t = 7 d @ 40° C. ([3]; 7-E, Dichloromethane): Suspension | Observations (t = 0 @ 40° C.) ([3]; 7-F, Ethanol): Suspension | Observations (t = 1 d @ 40° C.) ([3]; 7-F, Ethanol): Suspension | Observations t = 7 d @ 40° C. ([3]; 7-F, Ethanol): Suspension | Observations (t = 0 @ 40° C.) ([3]; 7-G, Ethyl acetate): Suspension | Observations (t = 1 d @ 40° C.) ([3]; 7-G, Ethyl acetate): Suspension | Observations t = 7 d @ 40° C. ([3]; 7-G, Ethyl acetate): Suspension | Observations (t = 0 @ 40° C.) ([3]; 7-H, Ethyl formate): Suspension | Observations (t = 1 d @ 40° C.) ([3]; 7-H, Ethyl formate): Suspension | Observations t = 7 d @ 40° C. ([3]; 7-H, Ethyl formate): Suspension | Observations (t = 0 @ 40° C.) ([3]; 7-I, Heptane): Suspension | Observations (t = 1 d @ 40° C.) ([3]; 7-I, Heptane): Suspension | Observations t = 7 d @ 40° C. ([3]; 7-I, Heptane): Suspension | Observations (t = 0 @ 40° C.) ([3]; 7-J, Isopropyl acetate): Suspension | Observations (t = 1 d @ 40° C.) ([3]; 7-J, Isopropyl acetate): Suspension | Observations t = 7 d @ 40° C. ([3]; 7-J, Isopropyl acetate): Suspension | Observations (t = 0 @ 40° C.) ([3]; 7-K, Methanol): Suspension | Observations t = 7 d @ 40° C. ([3]; 7-K, Methanol): Suspension | Observations (t = 0 @ 40° C.) ([3]; 7-L, Methyl acetate): Suspension | Observations (t = 1 d @ 40° C.) ([3]; 7-L, Methyl acetate): Suspension | Observations t = 7 d @ 40° C. ([3]; 7-L, Methyl acetate): Suspension | Observations (t = 0 @ 40° C.) ([3]; 7-M, Methylethyl ketone): Suspension | Observations (t = 1 d @ 40° C.) ([3]; 7-M, Methylethyl ketone): Suspension | Observations t = 7 d @ 40° C. ([3]; 7-M, Methylethyl ketone): Suspension | Observations (t = 0 @ 40° C.) ([3]; 7-N, 2-Methyl THF): Suspension | Observations (t = 1 d @ 40° C.) ([3]; 7-N, 2-Methyl THF): Suspension | Observations t = 7 d @ 40° C. ([3]; 7-N, 2-Methyl THF): Suspension | Observations (t = 0 @ 40° C.) ([3]; 7-O, Nitromethane): Suspension | Observations (t = 1 d @ 40° C.) ([3]; 7-O, Nitromethane): Suspension | Observations t = 7 d @ 40° C. ([3]; 7-O, Nitromethane): Suspension | Observations (t = 0 @ 40° C.) ([3]; 7-P, 2-Propanol): Suspension | Observations (t = 1 d @ 40° C.) ([3]; 7-P, 2-Propanol): Suspension | Observations t = 7 d @ 40° C. ([3]; 7-P, 2-Propanol): Suspension | Observations (t = 0 @ 40° C.) ([3]; 7-Q, Tetrahydrofuran): Suspension | Observations (t = 1 d @ 40° C.) ([3]; 7-Q, Tetrahydrofuran): Sticky Solid | Observations t = 7 d @ 40° C. ([3]; 7-Q, Tetrahydrofuran): Suspension | Observations (t = 0 @ 40° C.) ([3]; 7-R, Toluene): Suspension | Observations (t = 1 d @ 40° C.) ([3]; 7-R, Toluene): Suspension | Observations t = 7 d @ 40° C. ([3]; 7-R, Toluene): Suspension | Observations (t = 0 @ 40° C.) ([3]; 7-S, Water): Suspension | Observations t = 7 d @ 40° C. ([3]; 7-S, Water): Suspension
